In ChEMBL document CHEMBL1201862, “PubChem BioAssay data set” (2004):
Calls of active or inactive are those of the source.

Tests used:
[1] = biological target: T1, Cytochrome P450 2D6 (Homo sapiens, UniProt P10635);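 note: CYP2D6 member of a cytochrome P450 panel assay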
[2] = test system: HEK293; test: cells; details: Homo sapiens
[3] = test system: HEK293; test: cells; details: Homo sapiens; remark: listed apart in the source
[4] = biological target: T2, Microphthalmia-associated transcription factor (Homo sapiens, UniProt O75030); test: TRPM1 promoter luciferase signal decrease, dose response, MITF inhibitor project, cell-based, SK-MEL-5, cherry-picked, set 3 (AID 493073); type: functional
T2 sequence (O75030 whole entry): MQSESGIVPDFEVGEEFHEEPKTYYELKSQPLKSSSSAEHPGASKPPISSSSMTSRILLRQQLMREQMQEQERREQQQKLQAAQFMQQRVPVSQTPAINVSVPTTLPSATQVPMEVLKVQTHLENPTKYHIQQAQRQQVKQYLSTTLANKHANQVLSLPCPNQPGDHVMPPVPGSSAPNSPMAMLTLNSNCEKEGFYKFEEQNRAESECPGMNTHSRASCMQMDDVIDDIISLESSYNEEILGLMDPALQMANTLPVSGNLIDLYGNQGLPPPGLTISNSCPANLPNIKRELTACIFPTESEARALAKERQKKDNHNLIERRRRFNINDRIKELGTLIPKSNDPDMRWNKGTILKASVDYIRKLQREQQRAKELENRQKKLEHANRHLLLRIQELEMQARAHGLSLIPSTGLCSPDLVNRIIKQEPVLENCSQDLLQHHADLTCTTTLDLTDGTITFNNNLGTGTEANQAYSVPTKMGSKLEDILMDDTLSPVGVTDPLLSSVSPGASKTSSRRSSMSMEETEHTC

[5] = test system: A-375; test: A375 melanoma cell viability reduction, dose response, counter-screen for MITF modulator project, cherry-pick samples, set 2 (AID 540335); type: functional, cell-based; details: Homo sapiens
[6] = biological target: T1, Cytochrome P450 2D6; remark: listed apart in the source
[7] = biological target: Mu-type opioid receptor (Homo sapiens, UniProt P35372); test: HTS Image-Based Screen for Agonists of the MOR Receptor. [Related pubchem assays (depositor defined):AID1777, AID1785, AID1786, AID2133]; type: functional;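 note: imaging of beta-arrestin GFP recruitment into spots after receptor activation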
Mu-type opioid receptor, sequence (P35372 whole entry): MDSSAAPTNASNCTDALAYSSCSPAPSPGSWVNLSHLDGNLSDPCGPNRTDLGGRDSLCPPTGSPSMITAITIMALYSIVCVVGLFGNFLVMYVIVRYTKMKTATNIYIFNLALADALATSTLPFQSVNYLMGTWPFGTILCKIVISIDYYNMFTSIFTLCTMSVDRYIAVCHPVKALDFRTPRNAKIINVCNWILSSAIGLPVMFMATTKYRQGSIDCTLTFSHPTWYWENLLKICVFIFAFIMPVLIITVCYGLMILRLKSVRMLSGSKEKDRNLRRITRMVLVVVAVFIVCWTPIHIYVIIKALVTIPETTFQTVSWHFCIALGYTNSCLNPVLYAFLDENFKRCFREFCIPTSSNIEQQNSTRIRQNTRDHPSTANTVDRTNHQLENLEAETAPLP

[8] = biological target: T3, Delta-type opioid receptor (Homo sapiens, UniProt P41143); test: HTS Image-Based Screen for Agonists of the DOR Receptor. [Related pubchem assays (depositor defined):AID1777, AID1786, AID2133]; type: functional
T3 sequence (P41143 whole entry): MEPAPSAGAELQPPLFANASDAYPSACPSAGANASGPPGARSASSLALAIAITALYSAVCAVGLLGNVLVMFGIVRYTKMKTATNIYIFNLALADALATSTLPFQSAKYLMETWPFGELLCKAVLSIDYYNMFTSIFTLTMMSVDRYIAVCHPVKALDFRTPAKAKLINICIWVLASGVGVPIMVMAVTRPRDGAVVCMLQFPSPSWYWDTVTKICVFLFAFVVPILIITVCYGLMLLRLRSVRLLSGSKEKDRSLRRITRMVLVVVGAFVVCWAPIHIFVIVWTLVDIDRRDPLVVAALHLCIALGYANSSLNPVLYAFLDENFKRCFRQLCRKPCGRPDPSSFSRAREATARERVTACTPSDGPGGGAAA

[9] = biological target: T4, Beta-galactosidase (Escherichia coli, UniProt Q8VNN2); type: functional
T4 sequence (Q8VNN2 whole entry): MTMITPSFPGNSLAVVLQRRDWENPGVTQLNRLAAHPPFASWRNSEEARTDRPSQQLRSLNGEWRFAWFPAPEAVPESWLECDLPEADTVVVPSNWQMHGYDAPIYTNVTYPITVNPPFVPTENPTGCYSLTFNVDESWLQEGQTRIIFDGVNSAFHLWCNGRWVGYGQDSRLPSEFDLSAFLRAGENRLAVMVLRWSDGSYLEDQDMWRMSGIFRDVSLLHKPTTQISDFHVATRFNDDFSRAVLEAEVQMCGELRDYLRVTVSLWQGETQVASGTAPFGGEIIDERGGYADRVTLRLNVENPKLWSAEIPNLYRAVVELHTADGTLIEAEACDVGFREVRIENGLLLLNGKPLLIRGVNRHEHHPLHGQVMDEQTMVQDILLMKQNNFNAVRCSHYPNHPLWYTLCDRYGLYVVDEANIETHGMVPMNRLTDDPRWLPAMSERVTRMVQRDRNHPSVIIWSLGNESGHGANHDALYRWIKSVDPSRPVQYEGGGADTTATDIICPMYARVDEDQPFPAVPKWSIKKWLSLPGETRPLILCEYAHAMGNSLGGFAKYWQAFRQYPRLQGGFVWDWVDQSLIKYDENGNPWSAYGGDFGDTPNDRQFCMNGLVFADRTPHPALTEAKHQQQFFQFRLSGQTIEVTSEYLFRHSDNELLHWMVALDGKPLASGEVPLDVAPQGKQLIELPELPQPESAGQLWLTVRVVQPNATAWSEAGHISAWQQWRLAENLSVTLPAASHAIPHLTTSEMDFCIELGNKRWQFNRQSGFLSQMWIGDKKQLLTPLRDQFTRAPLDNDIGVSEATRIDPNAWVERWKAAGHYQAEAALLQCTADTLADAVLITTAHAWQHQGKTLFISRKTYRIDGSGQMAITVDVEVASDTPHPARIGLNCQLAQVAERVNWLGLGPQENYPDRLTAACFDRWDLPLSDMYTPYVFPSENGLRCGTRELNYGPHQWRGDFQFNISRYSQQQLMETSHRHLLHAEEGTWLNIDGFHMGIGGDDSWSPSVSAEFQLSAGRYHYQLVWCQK

[10] = biological target: T5, Kappa-type opioid receptor (Homo sapiens, UniProt P41145); type: functional
T5 sequence (P41145 whole entry): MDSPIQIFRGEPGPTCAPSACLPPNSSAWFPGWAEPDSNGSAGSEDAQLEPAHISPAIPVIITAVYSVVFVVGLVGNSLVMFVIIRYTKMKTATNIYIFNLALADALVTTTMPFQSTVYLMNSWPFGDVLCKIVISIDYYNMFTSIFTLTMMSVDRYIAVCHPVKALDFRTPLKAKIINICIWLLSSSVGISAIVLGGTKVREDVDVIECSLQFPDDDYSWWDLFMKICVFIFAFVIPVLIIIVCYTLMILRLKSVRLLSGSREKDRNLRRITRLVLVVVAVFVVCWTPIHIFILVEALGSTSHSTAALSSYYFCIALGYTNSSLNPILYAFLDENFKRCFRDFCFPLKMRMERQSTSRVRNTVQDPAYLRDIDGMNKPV

[11] = biological target: T3, Delta-type opioid receptor; test: HTS Image-Based Screen for Antagonists of the DOR Receptor. [Related pubchem assays (depositor defined):AID1777, AID1785, AID1786, AID2133]; type: functional
[12] = biological target: T5, Kappa-type opioid receptor; type: functional; remark: listed apart in the source
[13] = biological target: T6, CAAX prenyl protease 2 (Saccharomyces cerevisiae S288c, UniProt Q03530); type: biochemical
T6 sequence (Q03530 whole entry): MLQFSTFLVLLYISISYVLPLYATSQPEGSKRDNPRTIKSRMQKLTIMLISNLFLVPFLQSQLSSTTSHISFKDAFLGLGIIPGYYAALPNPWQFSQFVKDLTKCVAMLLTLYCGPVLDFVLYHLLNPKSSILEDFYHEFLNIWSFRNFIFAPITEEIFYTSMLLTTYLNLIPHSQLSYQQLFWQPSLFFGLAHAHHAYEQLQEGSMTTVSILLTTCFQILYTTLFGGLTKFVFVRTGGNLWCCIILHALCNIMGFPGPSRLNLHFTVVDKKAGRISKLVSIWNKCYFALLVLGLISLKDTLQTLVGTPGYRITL

[14] = biological target: CAAX prenyl protease 2 (Homo sapiens, UniProt Q9Y256); test: human Rce1 protease inhibitors, dose response, biochemical, yeast membranes, quenched-peptide fluorescence, cherry-pick (AID 588849)
CAAX prenyl protease 2 (Homo sapiens, UniProt Q9Y256), sequence (Q9Y256 whole entry): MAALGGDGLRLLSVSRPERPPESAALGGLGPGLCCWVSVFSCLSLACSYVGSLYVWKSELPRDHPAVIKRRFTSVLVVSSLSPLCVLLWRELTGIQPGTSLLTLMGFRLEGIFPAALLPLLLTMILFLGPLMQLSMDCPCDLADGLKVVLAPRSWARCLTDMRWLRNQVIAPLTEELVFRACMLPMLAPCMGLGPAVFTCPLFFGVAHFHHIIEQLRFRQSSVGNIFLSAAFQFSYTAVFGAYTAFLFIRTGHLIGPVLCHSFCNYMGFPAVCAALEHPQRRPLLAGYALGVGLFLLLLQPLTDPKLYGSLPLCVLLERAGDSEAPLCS

[15] = biological target: Trypsin (Sus scrofa, UniProt P00761); test: porcine trypsin inhibitors, dose response, selectivity assay for Rce1 protease inhibitor project, biochemical, quenched peptide fluorescence, cherry-pick (AID 488789)
Trypsin, sequence (P00761 whole entry): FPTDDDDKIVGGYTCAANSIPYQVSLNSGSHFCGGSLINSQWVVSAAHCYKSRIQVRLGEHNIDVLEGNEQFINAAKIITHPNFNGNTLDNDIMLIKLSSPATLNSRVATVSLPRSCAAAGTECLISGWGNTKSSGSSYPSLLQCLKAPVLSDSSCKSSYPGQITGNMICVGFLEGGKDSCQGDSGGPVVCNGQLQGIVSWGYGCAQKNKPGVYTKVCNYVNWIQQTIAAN

[16] = NIH-3T3 fibroblast cytotoxicity, dose response, cytotoxicity control, cell-based, fluorescence, Alamar Blue, secondary assay (AID 2327); type: functional;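 note: NIH-3T3 mouse fibroblasts cultured with fluconazole at 8 µg/mL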
[17] = biological target: T7, Short transient receptor potential channel 4 (Mus musculus, UniProt Q9QUQ5); test: mouse TRPC4 channel activators, dose response, cell-based, HEK293 TRPC4/mu-opioid, Fluo-4 calcium (AID 434937); type: functional
T7 sequence (Q9QUQ5 whole entry): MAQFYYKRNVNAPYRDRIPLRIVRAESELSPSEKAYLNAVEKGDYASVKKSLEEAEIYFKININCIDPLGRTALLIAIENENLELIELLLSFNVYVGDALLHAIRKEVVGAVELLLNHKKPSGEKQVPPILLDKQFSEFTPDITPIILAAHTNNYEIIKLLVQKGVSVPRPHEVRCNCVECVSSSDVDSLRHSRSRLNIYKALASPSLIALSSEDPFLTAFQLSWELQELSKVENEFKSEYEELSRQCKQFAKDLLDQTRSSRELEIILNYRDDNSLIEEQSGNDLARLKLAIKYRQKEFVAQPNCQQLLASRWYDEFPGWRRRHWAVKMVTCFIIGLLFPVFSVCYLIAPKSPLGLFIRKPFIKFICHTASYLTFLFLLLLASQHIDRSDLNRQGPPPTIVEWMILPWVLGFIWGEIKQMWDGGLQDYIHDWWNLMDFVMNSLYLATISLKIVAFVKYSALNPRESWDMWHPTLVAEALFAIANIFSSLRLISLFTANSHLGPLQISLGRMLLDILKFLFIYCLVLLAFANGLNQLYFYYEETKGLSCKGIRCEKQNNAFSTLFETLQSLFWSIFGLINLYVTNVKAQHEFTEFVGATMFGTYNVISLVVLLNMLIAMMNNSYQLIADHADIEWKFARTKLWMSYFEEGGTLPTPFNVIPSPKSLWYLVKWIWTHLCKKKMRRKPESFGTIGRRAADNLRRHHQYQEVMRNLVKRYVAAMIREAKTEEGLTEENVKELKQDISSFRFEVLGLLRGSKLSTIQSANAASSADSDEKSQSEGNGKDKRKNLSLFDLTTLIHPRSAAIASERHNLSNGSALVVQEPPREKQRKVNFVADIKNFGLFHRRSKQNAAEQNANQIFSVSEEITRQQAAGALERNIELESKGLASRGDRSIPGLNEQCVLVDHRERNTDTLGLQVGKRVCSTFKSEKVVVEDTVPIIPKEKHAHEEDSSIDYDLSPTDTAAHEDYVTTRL

[18] = C. albicans growth with fluconazole, confirmation, fluorescence, retest (AID 2467); type: functional, cell-based
[19] = biological target: T7, Short transient receptor potential channel 4; test: mouse TRPC4 channel inhibitors, dose response, cell-based, HEK293 TRPC4/mu-opioid, Fluo-4 calcium (AID 434942); type: functional;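 note: potency of inhibitors blocking the TRPC4 calcium response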
[20] = inhibitors of intracellular T. cruzi replication, confirmation, NIH3T3 host cells, beta-gal luminescence (AID 2044); type: functional, cell-based;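 note: intracellular parasites grown in NIH/3T3 mouse fibroblasts as host cells; luminescent beta-galactosidase reporter signal from transgenic T. cruzi replicating inside host cells; inhibitors lower the luminescence signal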
[21] = biological target: T4, Beta-galactosidase; test: PubChem AID 485352; type: functional
[22] = cytotoxicity toward NIH3T3 fibroblasts, dose response, counter-screen, cell-based, ATP luminescence, mouse fibroblasts (AID 2010); type: functional;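 note: cells exposed to compound for about 90 hours before reading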
[23] = biological target: T8, Type-1 angiotensin II receptor (Homo sapiens, UniProt P30556); test: AT1 receptor antagonists, dose response, selectivity assay for APJ receptor antagonist project, cell-based, uHTS hits (AID 463214); type: functional;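 note: antagonist potency against angiotensin II stimulated AT1 response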
T8 sequence (P30556 whole entry): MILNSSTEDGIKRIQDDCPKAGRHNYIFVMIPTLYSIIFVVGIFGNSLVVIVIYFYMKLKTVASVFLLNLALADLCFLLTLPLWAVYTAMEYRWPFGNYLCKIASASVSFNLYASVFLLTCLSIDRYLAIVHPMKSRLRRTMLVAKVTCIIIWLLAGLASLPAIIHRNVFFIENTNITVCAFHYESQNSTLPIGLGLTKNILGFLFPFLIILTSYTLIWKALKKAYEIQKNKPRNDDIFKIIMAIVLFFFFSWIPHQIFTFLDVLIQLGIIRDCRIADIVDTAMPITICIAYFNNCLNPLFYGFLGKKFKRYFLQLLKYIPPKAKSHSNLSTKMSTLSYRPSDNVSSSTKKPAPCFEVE

[24] = test system: BJ; test: cytotoxicity toward BJ-TERT fibroblasts, dose response, cell-based, RAS-independent, luminescence (AID 1933); type: functional; details: Homo sapiens
[25] = test system: BJ; test: cells; type: functional, cell-based; details: Homo sapiens
[26] = cytotoxicity toward DRD oncogenic fibroblasts, dose response, cell-based, non-viral oncogenic, luminescence (AID 1934); type: functional; details: Homo sapiens
[27] = biological target: T9, Heat shock factor protein 1 (Mus musculus, UniProt P38532); test: HSF1 potentiators in luciferase reporter cells, confirmation, cell-based, NIH3T3, luminescence, dose retest (AID 435004); type: functional;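 note: stress induced by proteasome inhibitor MG132 added 30 min after compound; luciferase reporter driven by HSF1 response element in NIH3T3 cells; actives raise luminescence as potentiators of the MG132 stress response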
T9 sequence (P38532 whole entry): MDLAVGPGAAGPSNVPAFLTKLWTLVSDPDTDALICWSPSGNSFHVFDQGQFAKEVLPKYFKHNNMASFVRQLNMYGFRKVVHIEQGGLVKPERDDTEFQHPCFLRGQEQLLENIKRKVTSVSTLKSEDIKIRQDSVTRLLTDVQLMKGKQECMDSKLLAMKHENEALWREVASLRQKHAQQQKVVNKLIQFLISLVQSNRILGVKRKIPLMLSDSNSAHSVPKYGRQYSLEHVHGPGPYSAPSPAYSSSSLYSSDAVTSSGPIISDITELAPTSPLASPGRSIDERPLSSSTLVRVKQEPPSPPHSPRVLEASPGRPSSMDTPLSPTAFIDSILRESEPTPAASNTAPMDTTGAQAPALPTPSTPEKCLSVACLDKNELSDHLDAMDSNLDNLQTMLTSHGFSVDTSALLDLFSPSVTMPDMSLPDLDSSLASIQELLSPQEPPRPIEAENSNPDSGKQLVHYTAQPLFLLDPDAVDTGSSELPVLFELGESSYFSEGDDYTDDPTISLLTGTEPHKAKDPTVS

[28] = test system: BJ; test: cytotoxicity toward BJ-TERT-LT-ST fibroblasts, dose response, cell-based, RAS-independent, luminescence (AID 1935); type: functional; details: Homo sapiens;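 note: BJ fibroblasts immortalized with TERT plus LT and ST oncogenes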
[29] = test system: HEK293; test: cells; details: Homo sapiens; remark: listed apart in the source
[30] = biological target: Nucleotide-binding oligomerization domain-containing protein 1 (Homo sapiens, UniProt Q9Y239); test: NOD1 signaling inhibitors, SAR follow-up, revised (AID 2333); type: functional
Nucleotide-binding oligomerization domain-containing protein 1, sequence (Q9Y239 whole entry, the tested form may be a part): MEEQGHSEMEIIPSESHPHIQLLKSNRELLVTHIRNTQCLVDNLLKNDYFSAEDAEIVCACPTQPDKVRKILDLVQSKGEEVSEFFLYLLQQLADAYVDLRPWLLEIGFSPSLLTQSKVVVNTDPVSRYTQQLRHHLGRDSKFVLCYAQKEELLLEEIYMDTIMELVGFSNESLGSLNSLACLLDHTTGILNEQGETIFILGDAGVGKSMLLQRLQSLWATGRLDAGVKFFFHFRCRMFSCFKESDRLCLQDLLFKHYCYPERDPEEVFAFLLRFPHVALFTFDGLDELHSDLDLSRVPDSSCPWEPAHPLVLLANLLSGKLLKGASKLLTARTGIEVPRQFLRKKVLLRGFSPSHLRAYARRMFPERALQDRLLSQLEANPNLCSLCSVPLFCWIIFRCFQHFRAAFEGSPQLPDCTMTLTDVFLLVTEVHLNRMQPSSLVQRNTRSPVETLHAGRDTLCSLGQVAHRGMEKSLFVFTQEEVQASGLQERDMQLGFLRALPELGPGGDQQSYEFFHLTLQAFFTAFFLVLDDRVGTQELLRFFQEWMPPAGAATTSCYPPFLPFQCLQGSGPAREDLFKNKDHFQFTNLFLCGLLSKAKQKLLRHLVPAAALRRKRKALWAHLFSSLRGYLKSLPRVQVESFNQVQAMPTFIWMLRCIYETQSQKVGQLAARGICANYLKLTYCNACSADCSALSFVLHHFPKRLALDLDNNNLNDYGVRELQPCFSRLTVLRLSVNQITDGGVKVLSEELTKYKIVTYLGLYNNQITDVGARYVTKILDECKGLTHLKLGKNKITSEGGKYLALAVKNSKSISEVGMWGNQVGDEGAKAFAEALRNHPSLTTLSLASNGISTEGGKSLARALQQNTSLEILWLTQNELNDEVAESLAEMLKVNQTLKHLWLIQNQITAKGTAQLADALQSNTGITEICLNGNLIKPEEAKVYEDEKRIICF

[31] = biological target: Tumor necrosis factor (Homo sapiens, UniProt P01375); test: TNFa-triggered NF-kB activation inhibitors, SAR follow-up, cell-based, revised (AID 2337); type: functional
Tumor necrosis factor, sequence (P01375 whole entry): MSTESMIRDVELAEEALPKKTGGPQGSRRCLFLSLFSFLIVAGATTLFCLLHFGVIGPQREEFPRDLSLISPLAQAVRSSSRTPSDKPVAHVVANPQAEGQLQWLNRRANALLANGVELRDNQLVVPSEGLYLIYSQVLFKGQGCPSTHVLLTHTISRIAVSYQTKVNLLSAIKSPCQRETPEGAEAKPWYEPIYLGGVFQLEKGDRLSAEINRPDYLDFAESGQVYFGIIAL

T1 sequence (P10635 whole entry): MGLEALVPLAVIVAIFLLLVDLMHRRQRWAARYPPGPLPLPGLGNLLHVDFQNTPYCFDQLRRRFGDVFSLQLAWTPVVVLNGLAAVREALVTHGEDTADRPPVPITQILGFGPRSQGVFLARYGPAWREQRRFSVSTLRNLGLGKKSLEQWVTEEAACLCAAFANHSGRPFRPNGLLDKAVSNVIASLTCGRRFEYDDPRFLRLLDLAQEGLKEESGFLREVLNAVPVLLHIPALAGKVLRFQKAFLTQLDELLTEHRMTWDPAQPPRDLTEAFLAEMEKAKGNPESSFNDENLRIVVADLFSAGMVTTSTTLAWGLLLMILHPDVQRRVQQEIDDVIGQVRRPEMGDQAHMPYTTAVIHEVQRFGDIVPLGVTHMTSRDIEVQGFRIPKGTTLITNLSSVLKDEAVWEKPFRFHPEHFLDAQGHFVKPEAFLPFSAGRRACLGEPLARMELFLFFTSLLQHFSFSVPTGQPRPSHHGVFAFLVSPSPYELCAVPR

## CCN1CCN(c2cc(=O)n(-c3cc(Cl)ccc3C)c(=O)[nH]2)CC1
[1]
  AC50: inconclusive

## CC1=C([N+](=O)[O-])C(c2cccc(Br)c2)C2=C(O)c3ccccc3C2=N1 (centres undefined)
[2]
  EC50: > 59.6 µM (inactive)
[3]
  EC50: > 59.6 µM (inactive)

## CCCCn1c(=N)n(CCOc2ccc(C)cc2)c2ccccc21
[4]
  AC50: 11.3 µM (active)
[5]
  AC50: 18.3 µM (active)

## COc1ccc(-c2csc(N3C(=N)SCC3=O)n2)cc1
[6]
  AC50: 11.2 µM (inconclusive)
[7]
  EC50: > 32 µM (inactive)
[8]
  EC50: > 32 µM (inactive)
[9]
  EC50: > 31.5 µM (inactive)
[10]
  IC50: > 32 µM
[11]
  IC50: > 32 µM (inactive)
[12]
  IC50: 12.8 µM (active)

## CC(C)(C)C(=O)C[n+]1ccc(C(N)=O)cc1
[13]
  AC50: 15.1 µM (active)
[14]
  AC50: 12.5 µM (active)
[15]
  AC50: 13.4 µM (active)

## Cc1ccccc1NC(=O)Cc1nc(COC(=O)c2ccc(S(C)(=O)=O)c([N+](=O)[O-])c2)cs1
[4]
  AC50: 12.8 µM (active)
[5]
  AC50: 28.2 µM (active)

## Cc1ccccc1C(=O)NNC(=S)NC(=O)c1ccc(Cl)cc1Cl
[16]
  EC50: > 160 µM (inactive)
[17]
  EC50: 1.33 µM (active)
[18]
  EC50: 1.75 µM (active)

## CCn1c(SCC(=O)c2cc(C)n(CC3CCCO3)c2C)nc2ccccc21 (centres undefined)
[19]
  EC50: 5.31 µM (active)
[17]
  EC50: 9.44 µM (active)

## Cc1ccc2oc(Nc3nc(O)cc(-c4ccccc4)n3)nc2c1
[20]
  EC50: 1.62 µM (active)
[7]
  EC50: > 32 µM (inactive)
[8]
  EC50: > 32 µM (inactive)
[9]
  EC50: > 31.5 µM (inactive)
[10]
  IC50: > 32 µM
[11]
  IC50: > 32 µM (inactive)
[12]
  IC50: 11.9 µM (active)
[21]
  EC50: > 40 µM (inactive)
[22]
  EC50: > 30 µM (not active)
[23]
  IC50: 3.99 µM (active)

## COc1ccccc1Oc1c(C)oc2c(CN3CCN(CCO)CC3)c(O)ccc2c1=O
[14]
  AC50: 2.48 µM (active)
[15]
  AC50: 5.25 µM (active)

## CN(C)c1nc(C=C(C#N)C#N)c(Cl)n1-c1ccc(F)cc1
[2]
  EC50: > 59.6 µM (inactive)
[24]
  EC50: 4.83 µM (active)
[4]
  AC50: 3.92 µM (active)
[25]
  EC50: 5 µM (active)
[26]
  EC50: 4.24 µM (active)
[27]
  EC50: 27.8 µM (active)
[28]
  EC50: 5.12 µM (inconclusive)
[3]
  EC50: > 59.6 µM (inactive)

## Cc1ccc(N2CCN(S(=O)(=O)c3ccc4c(c3)CC(C)N4C(=O)C3CC3)CC2)cc1 (centres undefined)
[29]
  IC50: > 20 µM (inactive)
[30]
  IC50: > 20 µM (inactive)
[31]
  IC50: > 20 µM (inactive)

## CCOc1ccc(C(=O)Nc2ccc(CN3CCc4ccccc4C3)cc2)cc1
[29]
  IC50: > 20 µM (inactive)
[30]
  IC50: > 20 µM (inactive)
[31]
  IC50: > 20 µM (inactive)

## NCCCc1c(-c2ccccc2)nc(N)[nH]c1=O
[1]
  AC50: inconclusive
